We go through 1 compound from US7622488B2, “Use of a pyrazole derivative for preparing medicines useful for treating renal diseases” (sanofi-aventis, priority 2005, dated 2009).

The structures appear in SMILES notation.

The test system of series [1] is obese patients. Particulars: clinical studies, cited from earlier work.
The test system of series [2] is Zucker fa/fa obese rats. In words: Long-term treatment (12 months) of Zucker fa/fa obese rats with established obesity; protection of renal function. Type of series: in vivo. Particulars: for mortality: after 12 months, untreated obese rats 64%. The protocol: The Zucker obese rat strain fa/fa is characterized by hyperphagia, obesity, dyslipidemia aid type 2 diabetes resulting in the gradual development of a nephropathy.
A group of Zucker fa/fa obese rats that were not treated, but received the same amount of food as the group treated with 10 mg/kg/day per os, was also formed (pair-fed group).

Where [3] appears, read: Zucker fa/fa obese rats, 3 and 10 mg/kg/day per os for 12 months, vs vehicle.
Where [4] appears, read: after 12 months of treatment, 3 and 10 mg/kg/day.

In general, mortality refers to the share of the test organisms that died. The low end stands for a weak lethal effect, the high end for a strong lethal effect. On to `Cc1c(C(=O)NN2CCCCC2)nn(-c2ccc(Cl)cc2Cl)c1-c1ccc(Cl)cc1` [rimonabant, N-piperidino-5-(4-chlorophenyl)-1-(2,4-dichlorophenyl)-4-methylpyrazole-3-carboxamide], for which the “body weight of obese patients” value in series [1] (obese patients) was “reduces”. Also, the food intake entry in series [1] is “acts on food intake in quantitative and qualitative terms”. This compound showed a mortality in series [2] (3 mg/kg/day per os, p<0.05) of 28%. Also, in series [2] (10 mg/kg/day per os, p<0.01), the mortality worked out at 20%. The “survival of the Zucker fa/fa obese rats” value in series [2] (3 and 10 mg/kg/day per os) is reported as “very significantly prolongs”. Moreover, in series [2] (setting [3]), the creatinine clearance result is recorded as “partially restored”, the “increase in plasma creatinine level” value is given as “decreased in a dose-dependent manner” and the “increase in plasma urea level” value is reported as “decreased in a dose-dependent manner”. Moreover, the renal hypertrophy entry in series [2] (Zucker fa/fa obese rats, 12 months treatment, vs vehicle) is listed as “significantly reduced”. For the same compound, in series [2] (setting [4]), the contractility result is listed as “remain unchanged”, the heart rate entry is listed as “remain unchanged”, the left ventricular pressure entry was “remain unchanged” and the mean arterial pressure result was “remain unchanged”. Besides, in series [2] (chronic treatment, 3 and 10 mg/kg/day per os), the protienuria result was “significantly delays”.
